The values below come from patent publication US20090318370A1, “NOVEL GLYCOCONJUGATED CHLORIN DERIVATIVES AND METHOD OF PRODUCING THE SAME” (REI Medical Co., Ltd., priority 2007, published 2009).

Data set [1] deals with HeLa cells. The conditions noted are these: non-patent reference 1; cited from earlier work.
The test system of data set [2] is HeLa cells. As to the kind of experiment: Evaluation of phototoxicity: WST-8 cell viability after light exposure (16 J/cm^2, halogen lamp, 500 nm cut-off filter). It counts as cell-based. The conditions noted are these: light 16 J/cm^2. On the procedure: HeLa cells were plated in a 96-well plate to give a concentration of 5×10^3 cells/well (medium volume: 100 μL), and the plate was incubated at 37° C. in 5% CO2 atmosphere for 24 hours. To each well was added 100 μL of a drug solution containing 2% dimethylsulfoxide to give a certain concentration. The plate was further incubated at 37° C. in 5% CO2 atmosphere for 24 hours. Then, the medium was discarded and the cells were washed twice with phosphate buffered saline (100 μL). To each well was added 100 μL of Dulbecco's modified Eagle's medium (DMEM) containing 10% fetal calf serum (FCS). The cells were then exposed to light (16 J/cm^2) from a 100 W halogen lamp equipped with a 500 nm cut-off filter and a water jacket. After that, the plate was further incubated at 37° C. in 5% CO2 for 24 hours. And the plate was subjected to WST-8 assay and cell viability rates were calculated as relative values to those obtained in the absence of drugs. The average values of the result from 6 replicate experiments for each drug were calculated.
The light dose was adjusted by controlling the irradiation time by using a power meter.
WST assay is one of the method to determine the activity of dehydrogenase of cells, in which tetrazolium salt (WST-8) is reduced dependently on the number of viable cells. The amount of the reduction was determined by absorption spectroscopy to provide the relative amount of viable cells.
Phototoxicity were determined for the chlorin derivatives or porphyrin derivatives which were prepared in the above Example and Comparative Example and obtained as production intermediates, and the compound from Reference Example at a drug concentration of 0.5 μM according to the above evaluation method.
For the compounds No. 6 to 9 and 14 to 16 shown in Table 1, phototoxicity was determined at a drug concentration of 0.09 μM according to the above evaluation method.

Where [3] appears, read: drug concentration 0.5 μM, FIG. 3.
[4] abbreviates: drug concentration 0.09 μM, FIG. 4.

In the case of “5,10,15,20-tetrakis[3-(β-D-glucopyranosyloxy)phenyl]chlorin [compound 15]”, in the data set on HeLa cells [1], the “cytotoxicity by irradiation with light” value is on record as “show cytotoxicity by irradiation with light” and the “cytotoxicity in the dark” value is “no cytotoxicity is found in the dark”. For the same compound, in the data set on HeLa cells [2] (setting [3]), the “phototoxicity compared with commercially available TPPS (No. 14)” value is given as “higher phototoxicity”.

Consider “5,10,15,20-tetrakis[4-(2,3,4,6-tetra-O-acetyl-β-D-glucopyranosylthio)-2,3,5,6-tetrafluorophenyl]-2,3-[methano(N-methyl)iminomethano]chlorin [compound 12]”, for which, in the data set on HeLa cells [2] (setting [3]), the “phototoxicity of acetyl-protected compound compared with No. 6, 7, 8, 9 respectively” value was “phototoxicity was disappeared”.

In the case of `CN1CC2c3nc(c(-c4c(F)c(F)c(F)c(F)c4F)c4ccc([n-]4)c(-c4c(F)c(F)c(F)c(F)c4F)c4nc(c(-c5c(F)c(F)c(F)c(F)c5F)c5ccc([n-]5)c3-c3c(F)c(F)c(F)c(F)c3F)C=C4)C2C1.[Pd+2]` (stereo not shown) [compound 4, {5,10,15,20-tetrakis(pentafluorophenyl)-2,3-[methano(N-methyl)iminomethano]chlorinato}palladium], in the data set with HeLa cells [2] (setting [3]), the “phototoxicity of metal complex compared with compound No. 3” value is given as “phototoxicity increased”.

`OC[C@H]1O[C@@H](Sc2c(F)c(F)c(-c3c4nc(c(-c5c(F)c(F)c(S[C@@H]6O[C@H](CO)[C@@H](O)[C@H](O)[C@H]6O)c(F)c5F)c5ccc([nH]5)c(-c5c(F)c(F)c(S[C@@H]6O[C@H](CO)[C@@H](O)[C@H](O)[C@H]6O)c(F)c5F)c5nc(c(-c6c(F)c(F)c(S[C@@H]7O[C@H](CO)[C@@H](O)[C@H](O)[C@H]7O)c(F)c6F)c6ccc3[nH]6)C=C5)C=C4)c(F)c2F)[C@H](O)[C@@H](O)[C@@H]1O` [compound 6, 5,10,15,20-tetrakis[4-(β-D-glucopyranosylthio)-2,3,5,6-tetrafluorophenyl]porphyrin, reference compound]: the “effect of sugar linkage on phototoxicity” value in the data set on HeLa cells [2] (setting [4]) is listed as “did not result in any improvement effect of phototoxicity”. Besides, in the data set on HeLa cells [2] (setting [3]), the “phototoxicity compared with commercially available TPPS (No. 14)” value is “higher phototoxicity” and the “phototoxicity compared with non-glycoconjugated compound (No. 1, 2, 3, 4 respectively)” value is on record as “higher phototoxicity”.

Consider `OCC1OC(Sc2c(F)c(F)c(-c3c4nc(c(-c5c(F)c(F)c(SC6OC(CO)C(O)C(O)C6O)c(F)c5F)c5ccc([n-]5)c(-c5c(F)c(F)c(SC6OC(CO)C(O)C(O)C6O)c(F)c5F)c5nc(c(-c6c(F)c(F)c(SC7OC(CO)C(O)C(O)C7O)c(F)c6F)c6ccc3[n-]6)C=C5)C=C4)c(F)c2F)C(O)C(O)C1O.[Pd+2]` [compound 7, {5,10,15,20-tetrakis[4-(β-D-glucopyranosylthio)-2,3,5,6-tetrafluorophenyl]porphyrinato}palladium (II), reference compound], for which the “effect of sugar linkage on phototoxicity” value with HeLa cells [2] (setting [4]) is “did not result in any improvement effect of phototoxicity”. For the same compound, in the data set with HeLa cells [2] (setting [3]), the “phototoxicity compared with commercially available TPPS (No. 14)” value was “higher phototoxicity” and the “phototoxicity compared with non-glycoconjugated compound (No. 1, 2, 3, 4 respectively)” value is “higher phototoxicity”.

For the compound `CN1C[C@@H]2c3nc(c(-c4c(F)c(F)c(S[C@@H]5O[C@H](CO)[C@@H](O)[C@H](O)[C@H]5O)c(F)c4F)c4ccc([nH]4)c(-c4c(F)c(F)c(S[C@@H]5O[C@H](CO)[C@@H](O)[C@H](O)[C@H]5O)c(F)c4F)c4nc(c(-c5c(F)c(F)c(S[C@@H]6O[C@H](CO)[C@@H](O)[C@H](O)[C@H]6O)c(F)c5F)c5ccc([nH]5)c3-c3c(F)c(F)c(S[C@@H]5O[C@H](CO)[C@@H](O)[C@H](O)[C@H]5O)c(F)c3F)C=C4)[C@@H]2C1` [compound 8, 5,10,15,20-tetrakis[4-(β-D-glucopyranosylthio)-2,3,5,6-tetrafluorophenyl]-2,3-[methano(N-methyl)iminomethano]chlorin], in the data set with HeLa cells [2] (setting [4]), the “effect of sugar linkage on phototoxicity” value is recorded as “distinguished improvement of phototoxicity” and the “phototoxicity compared with O-glycosylated chlorin derivative No. 15” value is “higher phototoxicity”. Further, the “phototoxicity compared with galactose-linked derivative No. 16” value in the data set on HeLa cells [2] (drug concentration 0.09 μM, FIG. 5) is on record as “higher phototoxicity”. Further, in the data set with HeLa cells [2] (setting [3]), the “phototoxicity compared with commercially available TPPS (No. 14)” value was “higher phototoxicity” and the “phototoxicity compared with non-glycoconjugated compound (No. 1, 2, 3, 4 respectively)” value is on record as “higher phototoxicity”. Also, in the data set on HeLa cells [2] (drug concentration 0.5 μM), the “phototoxicity compared with No. 6, 7 and No. 15” value is reported as “no difference in phototoxicity”; the “phototoxicity compared with O-glycosylated chlorin derivative No. 15” value was “not any differences in phototoxicity”.

With `CN1CC2c3nc(c(-c4c(F)c(F)c(SC5OC(CO)C(O)C(O)C5O)c(F)c4F)c4ccc([n-]4)c(-c4c(F)c(F)c(SC5OC(CO)C(O)C(O)C5O)c(F)c4F)c4nc(c(-c5c(F)c(F)c(SC6OC(CO)C(O)C(O)C6O)c(F)c5F)c5ccc([n-]5)c3-c3c(F)c(F)c(SC5OC(CO)C(O)C(O)C5O)c(F)c3F)C=C4)C2C1.[Pd+2]` [compound 9, {5,10,15,20-tetrakis[4-(β-D-glucopyranosylthio)-2,3,5,6-tetrafluorophenyl]-2,3-[methano(N-methyl)iminomethano]chlorinato}palladium (II)], in the data set with HeLa cells [2] (setting [4]), the “effect of sugar linkage on phototoxicity” value was “distinguished improvement of phototoxicity” and the “phototoxicity compared with O-glycosylated chlorin derivative No. 15” value is “higher phototoxicity”. Besides, in the data set on HeLa cells [2] (setting [3]), the “phototoxicity compared with commercially available TPPS (No. 14)” value is on record as “higher phototoxicity” and the “phototoxicity compared with non-glycoconjugated compound (No. 1, 2, 3, 4 respectively)” value was “higher phototoxicity”. Further, in the data set on HeLa cells [2] (drug concentration 0.5 μM), the “phototoxicity compared with No. 6, 7 and No. 15” value is “no difference in phototoxicity”; the “phototoxicity compared with O-glycosylated chlorin derivative No. 15” value was “not any differences in phototoxicity”.

With `CC(=O)OC[C@H]1O[C@@H](Sc2c(F)c(F)c(-c3c4nc(c(-c5c(F)c(F)c(S[C@@H]6O[C@H](COC(C)=O)[C@@H](OC(C)=O)[C@H](OC(C)=O)[C@H]6OC(C)=O)c(F)c5F)c5ccc([nH]5)c(-c5c(F)c(F)c(S[C@@H]6O[C@H](COC(C)=O)[C@@H](OC(C)=O)[C@H](OC(C)=O)[C@H]6OC(C)=O)c(F)c5F)c5nc(c(-c6c(F)c(F)c(S[C@@H]7O[C@H](COC(C)=O)[C@@H](OC(C)=O)[C@H](OC(C)=O)[C@H]7OC(C)=O)c(F)c6F)c6ccc3[nH]6)C=C5)C=C4)c(F)c2F)[C@H](OC(C)=O)[C@@H](OC(C)=O)[C@@H]1OC(C)=O` [compound 10, 5,10,15,20-tetrakis(4-(2,3,4,6-tetra-O-acetyl-β-D-glucopyranosylthio)-2,3,5,6-tetrafluorophenyl)porphyrin, reference compound], the “phototoxicity of acetyl-protected compound compared with No. 6, 7, 8, 9 respectively” value with HeLa cells [2] (setting [3]) was “phototoxicity was disappeared”.

`CC(=O)OCC1OC(Sc2c(F)c(F)c(-c3c4nc(c(-c5c(F)c(F)c(SC6OC(COC(C)=O)C(OC(C)=O)C(OC(C)=O)C6OC(C)=O)c(F)c5F)c5ccc([n-]5)c(-c5c(F)c(F)c(SC6OC(COC(C)=O)C(OC(C)=O)C(OC(C)=O)C6OC(C)=O)c(F)c5F)c5nc(c(-c6c(F)c(F)c(SC7OC(COC(C)=O)C(OC(C)=O)C(OC(C)=O)C7OC(C)=O)c(F)c6F)c6ccc3[n-]6)C=C5)C=C4)c(F)c2F)C(OC(C)=O)C(OC(C)=O)C1OC(C)=O.[Pd+2]` [compound 11, {5,10,15,20-tetrakis[4-(2,3,4,6-tetra-O-acetyl-β-D-glucopyranosylthio)-2,3,5,6-tetrafluorophenyl]porphyrinato}palladium (II), reference compound]: the “phototoxicity of acetyl-protected compound compared with No. 6, 7, 8, 9 respectively” value in the data set with HeLa cells [2] (setting [3]) is “phototoxicity was disappeared”.

On to `CC(=O)OCC1OC(Sc2c(F)c(F)c(-c3c4nc(c(-c5c(F)c(F)c(SC6OC(COC(C)=O)C(OC(C)=O)C(OC(C)=O)C6OC(C)=O)c(F)c5F)c5ccc([n-]5)c(-c5c(F)c(F)c(SC6OC(COC(C)=O)C(OC(C)=O)C(OC(C)=O)C6OC(C)=O)c(F)c5F)c5nc(c(-c6c(F)c(F)c(SC7OC(COC(C)=O)C(OC(C)=O)C(OC(C)=O)C7OC(C)=O)c(F)c6F)c6ccc3[n-]6)C3CN(C)CC53)C=C4)c(F)c2F)C(OC(C)=O)C(OC(C)=O)C1OC(C)=O.[Pd+2]` [compound 13, {5,10,15,20-tetrakis[4-(2,3,4,6-tetra-O-acetyl-β-D-glucopyranosylthio)-2,3,5,6-tetrafluorophenyl]-2,3-[methano(N-methyl)iminomethano]chlorinato}palladium (II)], for which, in the data set with HeLa cells [2] (setting [3]), the “phototoxicity of acetyl-protected compound compared with No. 6, 7, 8, 9 respectively” value is reported as “phototoxicity was disappeared”.

In the case of `CN1CC2c3nc(c(-c4c(F)c(F)c(S[C@@H]5O[C@H](CO)[C@H](O)[C@H](O)[C@H]5O)c(F)c4F)c4ccc([nH]4)c(-c4c(F)c(F)c(S[C@@H]5O[C@H](CO)[C@H](O)[C@H](O)[C@H]5O)c(F)c4F)c4nc(c(-c5c(F)c(F)c(S[C@@H]6O[C@H](CO)[C@H](O)[C@H](O)[C@H]6O)c(F)c5F)c5ccc([nH]5)c3-c3c(F)c(F)c(S[C@@H]5O[C@H](CO)[C@H](O)[C@H](O)[C@H]5O)c(F)c3F)C=C4)C2C1` (stereo partly drawn) [compound 16, 5,10,15,20-tetrakis[4-(β-D-galactopyranosylthio)-2,3,5,6-tetrafluorophenyl]-2,3-[methano(N-methyl)iminomethano]chlorin], the “phototoxicity compared with commercially available TPPS (No. 14)” value in the data set on HeLa cells [2] (setting [3]) is reported as “higher phototoxicity”.
